# In publication PMC6406907, “A H2AX–CARP-1 Interaction Regulates Apoptosis Signaling Following DNA Damage” (Cancers, 2019):
# No end group written: not given here. HA = not defined here
# Columns and labels:
# endogenous H2AX = experiment: Anti-EGFP co-immunoprecipitation with endogenous H2AX; assay type: cell-based, human; conditions: MDA-MB-468 stable subline, anti-EGFP IP, anti-H2AX WB; Figure 5C
# Description: Logarithmically growing cells were either untreated or treated with different agents for various time periods. The cells were lysed to prepare protein extracts. IP was carried out by incubating approximately 1 mg of the protein lysate with appropriate antibodies. The immunoprecipitates were then analyzed by SDS-PAGE, followed by WB with respective, interacting protein. For Gst-pulldown, Gst-H2AX or various His-TAT-HA-tagged CARP-1 peptides were generated in Escherichia coli (E. coli) BL21 cells essentially as described by us previously. Briefly, the competent E. coli BL-21 (DE3) pLysS cells were transformed separately with various recombinant pGEX-4T-1 or pTAT-HA constructs. The transformed cells were then subjected to selection by combined presence of ampicillin and chloramphenicol; various isolates for each transformation were obtained and bacterial lysates were characterized for expression of fusion peptides. Cells from each isolate were grown in 4 mL of LB medium containing ampicillin only until the optical density (OD)600 reached 0.4–0.8. Expression of fusion peptides was induced over 2–4 h incubation periods after Isopropyl β-D-1-thiogalactopyranoside (IPTG) addition. […]
# Figure 5 Fine Mapping of H2AX/CARP-1 interacting epitopes. […] Following stringent washing, the bound proteins were analyzed with WB using anti-HA (upper) or anti-Gst (middle) antibodies. […]
# MDA-MB-468 cells = experiment: Transduction/localization of TAT-tagged proteins, MDA-MB-468; assay type: cell-based, human; conditions: MDA-MB-468, 300 μg/mL, confocal
# Description: Cells were plated onto chamber slides one day before treatment. Following treatment of cells with respective compounds, the adherent cells were fixed with 5% formaldehyde for 10 min and then washed with phosphate buffered saline (PBS). Samples were blocked (0.5% NP-40, 5% milk powder, 1% fetal bovine serum) for 30 min. After a single wash with PBS, cells were incubated with primary antibodies for 45 to 60 min. Coverslips were washed with PBS and then incubated with secondary antibodies for another 45 to 60 min. They were then washed with PBS and mounted with 0.1 μg/mL 4′,6′-diamidino-2-phenylindole (DAPI) containing mounting solution. […]
# We further tested whether and the extent to which transient and ectopic expression of CARP-1 (636–650) peptide would also interfere with the cell-growth inhibition by Adriamycin. […] The wild-type MDA-MB-468 or HeLa cells were pre-incubated with His-TAT-HA-EGFP or His-TAT-HA-CARP-1 (636–650) proteins, and presence of GFP and CARP-1 (636–650) was determined by immuno-cytochemical staining followed by photography using a confocal microscope as above. […]
# Figure S9. […] Multiple cells from each of the confocal images in the γH2AX column of Figure 8C were subjected to quantitation for levels of γH2AX. The quantitation of the images of stained cells was carried out by using ImageJ software (imagej.nih.gov/ij/plugins/track/jacop2). […]
substance,measurement,setting,value
"EGFP-CARP-1 (636–650): EGFP-tagged fusion protein stably expressed in MDA-MB-468 and HeLa sublines (PKTMKVNDLRKELES; also: EGFP fusion kept, end not given here)",in-cell interaction with endogenous H2AX,endogenous H2AX,"robust, in vivo (in-cell) interaction"
"His-TAT-HA-CARP-1 (636–650): His-TAT-HA-tagged CARP-1 (636–650) peptide, >95% purity, commercially synthesized ({His-TAT-HA}-PKTMKVNDLRKELES; reading uncertain; UniProt Q8IX12 636-650, looked up, fragment)",cellular localization after transduction,MDA-MB-468 cells,predominantly present in the cytoplasmic region
